Peptide text beside a SMILES is read from it. * marks the point of attachment. Cbz = O=C(OCc1ccccc1)*
Key:
BIN2 [1] = assay: Immunoblotting of 2-DE of TAP-BIN2 from BL-treated plants; format: in vivo, Arabidopsis; conditions: 0.25 μM BL, 2 hrs, TAP-BIN2 transgenic plants
Description: Total proteins were extracted from BL-treated or untreated 35S::TAP-BIN2 plants for two-dimensional gel electrophoresis (2-DE) as described previously. The amount of BL-treated and untreated TAP-BIN2 proteins was normalized with Western blot. Equal amount of TAP-BIN2 proteins was separated by 2-DE using an immobilized pH gradient gel strip (7 cm, pH 3-10 non-linear) and 7.5% SDS-PAGE gel. The blots were probed with anti-PAP antibody (Sigma, St. Louis, Mo.).

BSU1 and BIN2 = assay: Co-immunoprecipitation of BSU1-YFP and BIN2-myc after BL treatment; format: in vivo, Arabidopsis; conditions: plants grown on BRZ, 10 μM MG-132 1 hr, 0.2 μM BL 15 min
Protocol: (§1) Plant materials were ground with liquid nitrogen and resuspended in IP buffer (50 mM Tris, pH 7.5, 150 mM NaCl, 5% Glycerol, 1% Triton X-100, 1 mM PMSF and 1× protease inhibitor cocktail (Sigma)). Filtered protein extracts were centrifuged at 20,000 g for 10 min and resulting supernatant was incubated with anti-GFP antibody bound Protein A beads or anti-myc agarose beads for 1 hr. Beads were washed 5 times with washing buffer (50 MM Tris, pH 7.5, 150 mM NaCl, 0.2% Triton X-100, 1 mM PMSF and 1× Protease inhibitor cocktail). The beads were resuspended with a small volume of kinase buffer (20 mM Tris, pH 7.5, 1 mM MgCl2, 100 mM NaCl and) mM DTT) and used for in vitro phosphatase assays, or immunoprecipitated proteins were eluted with buffer containing 2% SDS and analyzed by SDS-PAGE and immunoblotting.

BIN2 [2] = assay: pTyr200 of BIN2 in plants after BL treatment; format: in vivo, Arabidopsis; conditions: in the presence of MG132; 0.2 or 0.25 μM BL
Protocol: as §1
GST-BIN2 or GST-bin2-1 was incubated with MBP-BSU1 or BSU1-YFP beads for 3 Ins and subjected to immunoblotting. pTyr200 residue of BIN2 was detected by anti-phospho-GSK3a/f3 (Tyr279/216) monoclonal antibody, 5G-2F (Millipore, Temecula, Calif.) and re-probed with HRP conjugated anti-GST antibody (Santa Cruz Biotechnology, Santa Cruz, Calif.). The det2 plants were treated with 0.2 μM BL after 1 hr incubation with 10 μM MG 132. AntiBIN2 serum was developed in rabbits using GST-BIN2 as an immunogen. Monoclonal anti-GSK3α/β antibody was purchased from Invitrogen (Carlsbad, Calif.).

AtSK12 [3] = assay: pTyr dephosphorylation of AtSK12 in plants; format: in vivo, Arabidopsis; conditions: 10 μM MG132 then 0.25 μM BL
Protocol: as §1

BIN2 [4] = assay: BIN2-myc / bin2-1-myc protein level in transformed tobacco leaves; format: in vivo; conditions: 1 μM BL for 1 hr
Protocol: Transformation by Agrobacterium infiltration, observations of subcellular localization and BiFC signal in tobacco or Arabidopsis were performed as described previously 5. Fluorescence of YFP was visualized by using a spinning-disk confocal microscope (Leica Microsystems, Heerbruag, Germany).

BIN2 [5] = target: T1, BIN2 (Arabidopsis thaliana, UniProt Q39011); assay: In vitro BIN2 inhibition assay (BIN2 phosphorylation of BZR1); format: biochemical; conditions: BSU1-YFP immunoprecipitated from plants treated with BL versus untreated plants
T1 construct: made in house; host or cells: E. coli
T1 sequence (Q39011 1-380): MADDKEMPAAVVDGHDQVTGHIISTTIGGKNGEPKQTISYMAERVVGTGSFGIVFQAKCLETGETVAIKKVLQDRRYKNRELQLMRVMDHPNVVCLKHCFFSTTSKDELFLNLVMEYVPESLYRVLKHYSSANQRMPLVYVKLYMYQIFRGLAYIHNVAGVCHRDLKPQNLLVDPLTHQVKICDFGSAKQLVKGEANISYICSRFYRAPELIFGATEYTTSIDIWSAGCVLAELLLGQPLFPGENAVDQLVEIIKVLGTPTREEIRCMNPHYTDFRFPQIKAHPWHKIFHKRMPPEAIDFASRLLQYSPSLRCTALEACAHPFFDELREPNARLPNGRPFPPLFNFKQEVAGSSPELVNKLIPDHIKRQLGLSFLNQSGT
Protocol: In vitro BIN2 inhibition assays were performed by 3 hrs co-incubation of MBP-BZR1, GST BIN2, GST BSU1 and ^32P-γATP or pre-incubation of GST-BIN2 with GST-BSU1 for various time followed by adding MBP-BZR1 and 32P-γATP. The examine activities of partial BSU1, N-terminal Kelch (1-363th amino acid) and C-terminal phosphatase (364-793th amino acid) region were used. GST, GST-BSU1, GSTBSU1-Ketch and GST-BSU1-phosphatase were pre-incubated with GST-BIN2 for 1 hr, and further incubated with MBP-BZR1 and ^32P-γATP for 3 hrs.
To test activities of BSU1-YFP, anti-GFP antibody-Protein A beads were used to immunoprecipitate BSU1-YFP from extracts of BSU1-YFP transgenic plants, and non-transgenic wild type plants were used as control. The beads were incubated with GST-BIN2 or GST bin2-1 for 1 hr, and then the beads were removed. The BSU1-treated GST-BIN2 or GST-bin2-1 was further incubated with MBP-BZR1 and ^32P-γATP for 3 hrs.

AtSK12 [6] = assay: AtSK12 protein accumulation in transgenic plants; format: in vivo, Arabidopsis; parameters: dose or concentration left out as unconfirmed; conditions: AtSK12-myc plants; BRZ medium for 5 days; BL for 30 min
Protocol: as §1

BIN2 [7] = assay: BIN2-myc / bin2-1-myc degradation in transgenic plants; format: in vivo, Arabidopsis
Protocol: as §1

BIN2 [8] = target: T1, BIN2; assay: PP1 dephosphorylation of GST-tagged BIN2; format: biochemical; conditions: PP1 purified from E. coli
Protocol: (§2) It was next examined whether the mammalian homolog to BSU1, PP1, would dephosphorylate BIN2. A GST-tagged BIN2 was isolated from cells and incubated with PP1 purified from E. coli cells expressing the phosphatase.

PP1 = target: T2, PP1 (Homo sapiens, UniProt P36873); assay: Inhibition of PP1 activity on BIN2; format: biochemical, mammalian
T2 construct: made in house; host or cells: E. coli
Protocol: as §2

T2 sequence (P36873 whole entry): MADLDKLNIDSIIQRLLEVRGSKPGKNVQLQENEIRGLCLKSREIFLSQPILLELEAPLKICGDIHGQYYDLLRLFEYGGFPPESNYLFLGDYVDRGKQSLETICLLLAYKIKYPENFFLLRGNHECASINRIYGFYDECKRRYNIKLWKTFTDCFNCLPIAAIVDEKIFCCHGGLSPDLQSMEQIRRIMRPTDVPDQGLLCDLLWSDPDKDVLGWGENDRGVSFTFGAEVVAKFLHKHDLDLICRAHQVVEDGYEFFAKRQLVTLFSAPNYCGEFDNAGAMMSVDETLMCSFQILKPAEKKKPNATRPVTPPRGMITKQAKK

Compound: CC(C)[C@H](C)[C@@H](O)[C@H](O)[C@@H](C)[C@H]1CC[C@H]2[C@@H]3COC(=O)[C@H]4C[C@H](O)[C@H](O)C[C@]4(C)[C@H]3CC[C@]12C [BL, brassinolide]
- phosphorylation forms of epitope-tagged BIN2 protein (BIN2 [1]): caused disappearance of the acidic forms and an increase of the basic forms
- interaction of BSU1 and BIN2 (BSU1 and BIN2): BR-induced interaction of BSU1 and BIN2
- phosphorylation of Tyr200 of wild type BIN2 or BIN2-myc in plants (BIN2 [2]): reduced the phosphorylation of Tyr200
- phosphorylation of AtSK12 Tyr233 (AtSK12 [3]): greatly reduced phosphorylation of AtSK12 Tyr233
- level of BIN2 and bin2-1 proteins (BIN2 [4]): reduces the level of BIN2 but not bin2-1 proteins
- BIN2-inhibiting activity of BSU1-YFP from BL-treated plants (BIN2 [5]): more effective inhibition of BIN2 phosphorylation of BZR1
- AtSK12 protein stability (AtSK12 [6]): destabilized
- degradation of BIN2 and bin2-1 (BIN2 [7]; transgenic plants, 0.25 μM BL for 30 min): induces degradation of BIN2 but not bin2-1

Compound: CC(C)C[C@@H](C=O)NC(=O)[C@H](CC(C)C)NC(=O)[C@H](CC(C)C)NC(=O)OCc1ccccc1 [MG132] (Cbz-Leu-Leu-Leu-aldehyde)
- BR-induced BIN2 depletion (BIN2 [7]; proteasome inhibitor, 10 μM): prevents BR-induced BIN2 depletion

Compound: CC(O)(c1ccccc1)C(Cc1ccc(Cl)cc1)n1cncn1 (stereo not drawn) [brassinazole]
- AtSK12 protein stability (AtSK12 [6]): stabilized

Compound: PP1: mammalian homolog to BSU1, protein phosphatase-1, purified from E. coli
- dephosphorylation of BIN2 tyrosine200 (BIN2 [8]): increased dephosphorylation of BIN2 tyrosine200

Compound: manganese chloride
- enzymatic activity of PP1 on BIN2 (PP1): also inhibited the enxymatic activity of PP1 on BIN2

From patent US20120322150A1, “Mechanism and Method for Regulating Glycogen Synthase Kinase 3 (GSK3)-Related Kinases” (CARNEGIE INSTITUTION OF WASHINGTON, priority 2009, published 2012)
